Several values for one entry are separate records, joined by “and”; a condition that tells them apart may be missing. Equal entries are not always repeated. Entries after “also recorded” stand apart in the source; their conditions may differ.
Key:
healthy subjects [1] = tested on: healthy subjects; parameters: species or system human; conditions: in vivo
[2] = Example 1 single rising dose inhaled delta-9-THC study: plasma pharmacokinetics
Description: A randomized, double blind, placebo controlled, three way crossover, single rising dose human clinical study in two sequential groups (Groups I and II) of nine young healthy male subjects (18-45 years of age and body mass index (BMI) of 20-26 kg/m^2) of a metered dose inhalation composition according to one embodiment the present invention was conducted. Each subject received two ascending single doses of inhaled delta-9-THC and one single dose of inhaled placebo according to a three-way crossover balanced incomplete block design. The administered composition is detailed in Table 1. Composition I provides 0.3 mg per actuation, while Composition II provides 1.2 mg per actuation.
Each sequential dose level or period was separated by a washout period of two weeks, during which an interim safety and pharmacokinetic analysis was performed. A third group (Group III) of nine elderly healthy male and female subjects (65-80 years old and BMI 18-30 kg/m^2) was added after completion of the sixth study period to participate in a single treatment period. […] Five dose levels were evaluated: 0.3 mg, 1.2 mg, and 2.4 mg in Group I, 3.6 mg, 7.2 mg, and 9.6 mg in Group II, and 3.6 mg in Group III. Subjects were confined to the study center from the day prior to dosing until the 48 hour blood sample. Subjects returned to the center for 72, 96 and 120 hour pharmacokinetic samples. Various pharmacokinetic and pharmacodynamic measurements and sampling were taken according to the Assessment Flow Charts in FIG. 1 and FIG. 2. Safety was measured by monitoring adverse events, physical examination, clinical laboratory and pulmonary function tests, vital signs, 12 lead ECG, and telemetry.
Safety, pharmacokinetic and pharmacodynamic variables were estimated. Plasma concentrations of delta-9-THC (THC), 11-hydroxy-tetrahydrocanabinol (11-OH-THC) and delta-9-tetrahydrocannbinol-carboxylic acid (THC-COOH) were determined for pharmacokinetic analysis.
Whole blood samples were collected according to the assessment flowchart in EDTA tubes through venepuncture or indwelling catheter. Samples were immediately placed on ice and subsequently centrifuged within 30 minutes at 1,500 g for 10 minutes. Plasma was transferred into a 5 ml screw cap polypropylene tube, stoppered and stored at below minus 20° C. until transfer to the analytical laboratory for analysis. […] The measurement ranges were 0.05-30 ng/ml for delta-9-THC, 0.04-30 ng/ml for 11-OH-THC, and 0.25-10 ng/ml for THC-COOH.
Number of subjects, mean, standard deviation, coefficient variable (%) and geometric mean were calculated for all pharmacokinetic parameters.
For Example 1: A mixed ANOVA model with group and dose fixed effect and subject within group by dose as random effect was performed on the logarithms of the dose normalized pharmacokinetic parameters AUC, AUC0-t and Cmax. The overall treatment effect was tested by conventional F-test with Satterthwaites correction. Dose proportionality was tested using Helmert Contrasts and Reverse Helmert Contrasts. The within and between subject coefficient of variances were calculated from the estimated covariance parameters. Per dose level geometric means with 90% confidence interval were calculated for the dose-normalized values from the least squared means analysis outcomes. The difference between young and elderly subjects was explored using a one-way ANOVA.

healthy subjects [3] = experiment: Example 1: heart rate and blood pressure; format: in vivo, human
From the text: Heart rate, conjunctiva congestion, subjective ratings, and a battery of computerized cognitive tests were used to evaluate pharmacodynamics. FIG. 11a-b are plots of mean baseline adjusted heart rate for Groups I-III. FIG. 12a-c show plots of placebo corrected diastolic blood pressure. […] FIG. 14a-b present comparisons of Active versus Placebo alertness and a plot of change in self-rated alertness. FIG. 15a-b show comparisons of Active v. Placebo for calmness and a plot of change in self-rated calmness.
For Examples 1 and 2: Heart rate was obtained from the blood pressure recordings or using telemetry.
Absolute values of heart rate and conjunctive congestion scores were used to calculate changes from baseline.
For Example 1: All pharmacodynamic variables were evaluated using descriptive statistics for all study evaluations.

With `CCCCCc1cc(O)c2c(c1)OC(C)(C)[C@@H]1CCC(C)=C[C@@H]21` [delta-9-THC, delta-9-tetrahydrocannabinol] the “Choice Reaction Time against placebo” value (healthy subjects [1]) was “significant decrement; also recorded: significant benefit”, the “Delayed Word Recall Words Correctly Recalled, primary analysis” value (healthy subjects [1]) was “no significant effect of dose” and the “Delayed Word Recognition Sensitivity Index, primary analysis” value (healthy subjects [1]) was “no significant effect of dose”. For the same compound, the “Delayed Word Recognition Speed against placebo” value (healthy subjects [1]) was “benefits”, the “Digit Vigilance Speed, primary analysis” value (healthy subjects [1]) was “no significant effect of dose” and the “Digit Vigilance Targets Detected, baseline score” value (healthy subjects [1]) was 95.6% and 96.7% and 97.4% and 98.5%. For the same compound, the “Immediate Word Recall Words Correctly Recalled, primary analysis” value (healthy subjects [1]) was “no significant effect of dose”, the “Numeric Working Memory Sensitivity Index, primary analysis” value (healthy subjects [1]) was “no significant effect of dose” and the “Numeric Working Memory Speed, primary analysis” value (healthy subjects [1]) was “no significant effect of dose”. For the same compound, the “Picture Recognition Sensitivity Index, primary analysis” value (healthy subjects [1]) was “no significant effect of dose”, the “Picture Recognition Speed, primary analysis” value (healthy subjects [1]) was “no dose*time interaction” and the “Self-rated Alertness, comparisons against placebo” value (healthy subjects [1]) was “no decrements”. For the same compound, the “Self-rated Calmness, primary analysis” value (healthy subjects [1]) was “no significant effect of dose”, the “Self-rated Contentment, comparisons” value (healthy subjects [1]) was “no support for differences between the doses on either day” and the “Simple Reaction Time, comparisons” value (healthy subjects [1]) was “did not show any significant differences”. The “Spatial Working Memory Sensitivity Index against placebo” value (healthy subjects [1]) was “significant decrement”, the “Spatial Working Memory Sensitivity Index, primary analysis” value (healthy subjects [1]) was “significant main effect of dose” and the “Spatial Working Memory Speed, primary analysis” value (healthy subjects [1]) was “no significant effect of dose”. The “Tracking Average Distance from Target, primary analysis” value (healthy subjects [1]) was “no significant effect of dose”, the “cognitive function effects (summary)” value (healthy subjects [1]) was “Minimal cognitive function effects” and the “Cmax and AUC versus dose” value ([2]; 7.2 and 9.6 mg doses) was “less than proportional increase”. For the same compound, the “Cmax and AUC versus dose” value ([2]; Groups I and II, doses from 0.3-3.6 mg) was “dose-related increase”, the Cmax ([2]; male, human, plasma, inhaled, 2.4 mg) was 23.6 ng/mL and the “effect on heart rate” value (healthy subjects [3]; 0.3 mg dose, Groups I-II) was “did not differ markedly from that observed with placebo”. For the same compound, the “duration of heart rate increase” value (healthy subjects [3]; 1.2 mg) was 5 min, the “increase in heart rate relative to placebo” value (healthy subjects [3]; 1.2 mg, 5 minutes after dosing) was “approximately 12 bpm” and the “duration of heart rate increase” value (healthy subjects [3]; 2.4 mg) was “about 15 minutes”. The “largest effect on heart rate, increase compared to placebo” value (healthy subjects [3]; 7.2 mg) was “about 46 bpm”, the “duration of heart rate increase” value (healthy subjects [3]; 9.6 mg) was “about 2.0 hours” and the “time of return of heart rate to normal after dosing” value (healthy subjects [3]; Group III (elderly, 3.6 mg)) was 5 min. For the same compound, the heart rate increase (healthy subjects [3]; Group III (elderly, 3.6 mg), at 2 minutes) was 10 bpm, the “placebo corrected diastolic and systolic blood pressure” value (healthy subjects [3]; across the dose levels investigated) was “no clear dose-relationship” and the “duration of effect on heart rate” value (healthy subjects [3]; after single dosing) was “approximately 2 hours”. For the same compound, the “time of maximum effect on heart rate” value (healthy subjects [3]; after single dosing) was 2 to 5 min and the “placebo corrected heart rate” value (healthy subjects [3]; between 0.17 and 5 hours post dose) was “dose related increase”.
